For the experiment, the target named is T1, recombinant human GluN1/GluN2A receptor (Homo sapiens, UniProt Q05586+Q12879).
T1 construct: expressed in transfected cells; host or cells: HEK293, tetracycline-inducible expression
Briefly: Whole-cell patch clamp of mammalian cells (Syncropatch 384i), NMDA modulation. The class given is cell-based. The method in brief:
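HEK293 cells with tetracycline-induced (50 ng/ml, 18–24 h) human GluN1/GluN2A, automated whole-cell recording at −80 mV, pH 7.4 external. After 120 s compound pre-incubation, compound applied with glutamate 1 μM/glycine 100 μM; fold peak increase (Icomp/Icontrol)−1 over 8 concentrations fitted four-parameter logistic.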
In general terms: Patch clamp records ionic current or voltage across a cell membrane.

The mark [1] stands for this setting: Table C-2, HEK293 cells, human GluN1/GluN2A, glutamate 1 μM / glycine 100 μM, -80 mV, peak amplitude increase.
Setting [2] is: Table C-2, HEK293 cells, human GluN1/GluN2A, glutamate 1 μM / glycine 100 μM, -80 mV, peak amplitude increase, read-out: EC50.
Where [3] appears, read: Table E-2, HEK293 cells, human GluN1/GluN2A, glutamate 1 μM / glycine 100 μM, -80 mV, peak amplitude increase, read-out: EC50.

Structures are written as SMILES. Where two headings read alike, the source gives them in different places.

T1 sequence (Q12879 23-1464, other chains not shown): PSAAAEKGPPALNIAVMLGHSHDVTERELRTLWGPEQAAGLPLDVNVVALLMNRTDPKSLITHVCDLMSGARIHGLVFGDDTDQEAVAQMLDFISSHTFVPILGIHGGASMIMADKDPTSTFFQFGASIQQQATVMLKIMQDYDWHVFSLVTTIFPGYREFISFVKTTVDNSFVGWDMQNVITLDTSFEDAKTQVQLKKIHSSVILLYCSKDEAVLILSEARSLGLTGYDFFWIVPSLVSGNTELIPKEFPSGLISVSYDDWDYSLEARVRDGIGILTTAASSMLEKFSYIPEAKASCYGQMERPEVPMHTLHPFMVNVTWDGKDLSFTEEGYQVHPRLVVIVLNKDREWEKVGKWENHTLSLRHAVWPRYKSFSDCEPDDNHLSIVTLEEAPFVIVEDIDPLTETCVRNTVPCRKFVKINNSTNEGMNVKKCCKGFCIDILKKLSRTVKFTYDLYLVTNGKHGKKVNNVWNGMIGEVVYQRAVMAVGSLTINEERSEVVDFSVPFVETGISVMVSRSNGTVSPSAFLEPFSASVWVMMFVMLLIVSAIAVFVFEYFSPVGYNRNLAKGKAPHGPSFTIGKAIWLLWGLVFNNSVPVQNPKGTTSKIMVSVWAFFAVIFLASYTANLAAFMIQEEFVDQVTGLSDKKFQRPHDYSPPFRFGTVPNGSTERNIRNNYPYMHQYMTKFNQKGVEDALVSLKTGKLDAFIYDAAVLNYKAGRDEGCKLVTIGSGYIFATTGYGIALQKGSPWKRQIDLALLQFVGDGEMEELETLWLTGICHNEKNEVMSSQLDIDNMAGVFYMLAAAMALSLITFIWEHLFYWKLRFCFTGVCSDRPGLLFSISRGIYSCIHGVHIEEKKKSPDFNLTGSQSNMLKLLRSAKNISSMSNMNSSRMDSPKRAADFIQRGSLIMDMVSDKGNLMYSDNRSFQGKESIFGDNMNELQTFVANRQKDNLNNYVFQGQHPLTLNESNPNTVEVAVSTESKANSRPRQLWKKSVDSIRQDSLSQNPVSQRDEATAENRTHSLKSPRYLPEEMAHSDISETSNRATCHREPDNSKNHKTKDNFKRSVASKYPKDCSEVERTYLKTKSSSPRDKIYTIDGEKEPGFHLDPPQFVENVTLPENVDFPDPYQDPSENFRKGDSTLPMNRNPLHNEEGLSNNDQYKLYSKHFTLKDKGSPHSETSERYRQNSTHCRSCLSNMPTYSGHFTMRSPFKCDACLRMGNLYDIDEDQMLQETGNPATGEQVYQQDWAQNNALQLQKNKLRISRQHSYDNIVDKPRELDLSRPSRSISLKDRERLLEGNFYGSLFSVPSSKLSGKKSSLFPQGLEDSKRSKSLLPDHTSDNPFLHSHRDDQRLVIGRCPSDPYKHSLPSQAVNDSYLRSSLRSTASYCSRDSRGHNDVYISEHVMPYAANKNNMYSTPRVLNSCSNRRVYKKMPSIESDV

The Emax is the greatest response seen or fitted, relative to the assay's reference. Broadly, the EC50 is the midpoint of the concentration-response curve. For the compound `CC[C@]1(O)CC[C@@]2(C)[C@@H](CC[C@@H]3[C@@H]2CC[C@]2(C)[C@@H]([C@H](C)CC[C@H](O)CC#N)CC[C@@H]32)C1` [Compound C-10, (3S,6R)-6-((3S,5S,8R,9S,10S,13R,14S,17R)-3-ethyl-3-hydroxy-10,13-dimethylhexadecahydro-1H-cyclopenta[a]phenanthren-17-yl)-3-hydroxyheptanenitrile], the Emax under setting [1] is less than 100%. Further, the EC50 under setting [2] fell in the range of 0.1 to 0.5 µM.

Take `CC[C@]1(O)CC[C@@]2(C)[C@@H](CC[C@@H]3[C@@H]2CC[C@]2(C)[C@@H]([C@H](C)CC[C@@H](O)CC#N)CC[C@@H]32)C1` [Compound C-11, (3R,6R)-6-((3S,5S,8R,9S,10S,13R,14S,17R)-3-ethyl-3-hydroxy-10,13-dimethylhexadecahydro-1H-cyclopenta[a]phenanthren-17-yl)-3-hydroxyheptanenitrile]: under setting [1], the Emax is 100 to 200%. Further, under setting [2], the EC50 was in the range of 0.001 to 0.1 µM.

In the case of `CC[C@]1(O)CC[C@@]2(C)C(=CC[C@H]3[C@@H]4CC[C@H]([C@H](C)CC[C@@H](O)C(C)(C)C#N)[C@@]4(C)CC[C@@H]32)C1` [Compound C-12], the EC50 was in the range of 0.001 to 0.1 µM. In addition, under setting [1], the maximal response (Emax) was more than 200%.

Regarding `CC[C@]1(O)CC[C@@]2(C)C(=CC[C@H]3[C@@H]4CC[C@H]([C@H](C)CC[C@H](O)C(C)(C)C#N)[C@@]4(C)CC[C@@H]32)C1` [Compound C-13, (3S,6R)-6-((3S,8S,9S,10R,13R,14S,17R)-3-ethyl-3-hydroxy-10,13-dimethyl-2,3,4,7,8,9,10,11,12,13,14,15,16,17-tetradecahydro-1H-cyclopenta[a]phenanthren-17-yl)-3-hydroxy-2,2-dimethylheptanenitrile], the Emax under setting [1] lay in the range of 100 to 200%. Besides, the EC50 under setting [2] fell in the range of 0.001 to 0.1 µM.

Regarding `CC[C@]1(O)CC[C@@]2(C)C(=CC[C@H]3[C@@H]4CC[C@H]([C@H](C)CC[C@H](O)C5(C#N)CCC5)[C@@]4(C)CC[C@@H]32)C1` [Compound C-18, 1-((1S,4R)-4-((3S,8S,9S,10R,13R,14S,17R)-3-ethyl-3-hydroxy-10,13-dimethyl-2,3,4,7,8,9,10,11,12,13,14,15,16,17-tetradecahydro-1H-cyclopenta[a]phenanthren-17-yl)-1-hydroxypentyl)cyclobutane-1-carbonitrile], the concentration giving a half-maximal response (EC50) under setting [2] lay within 0.1 to 0.5 µM.

Take `CC[C@]1(O)CC[C@@]2(C)C(=CC[C@H]3[C@@H]4CC[C@H]([C@H](C)CC[C@@H](O)C5(C#N)CCC5)[C@@]4(C)CC[C@@H]32)C1` [Compound C-19, 1-((1R,4R)-4-((3S,8S,9S,10R,13R,14S,17R)-3-ethyl-3-hydroxy-10,13-dimethyl-2,3,4,7,8,9,10,11,12,13,14,15,16,17-tetradecahydro-1H-cyclopenta[a]phenanthren-17-yl)-1-hydroxypentyl)cyclobutane-1-carbonitrile]: under setting [2], the EC50 lay in the range of 0.001 to 0.1 µM.

For `CC[C@]1(O)CC[C@@]2(C)C(=CC[C@H]3[C@@H]4CC[C@H]([C@H](C)CC[C@H](O)C5(C#N)CC5)[C@@]4(C)CC[C@@H]32)C1` [Compound C-20, 1-((1S,4R)-4-((3S,8S,9S,10R,13R,14S,17R)-3-ethyl-3-hydroxy-10,13-dimethyl-2,3,4,7,8,9,10,11,12,13,14,15,16,17-tetradecahydro-1H-cyclopenta[a]phenanthren-17-yl)-1-hydroxypentyl)cyclopropane-1-carbonitrile], the EC50 under setting [2] is 0.1 to 0.5 µM.

Regarding `CC[C@]1(O)CC[C@@]2(C)C(=CC[C@H]3[C@@H]4CC[C@H]([C@H](C)CC[C@@H](O)C5(C#N)CC5)[C@@]4(C)CC[C@@H]32)C1` [Compound C-21, 1-((1R,4R)-4-((3S,8S,9S,10R,13R,14S,17R)-3-ethyl-3-hydroxy-10,13-dimethyl-2,3,4,7,8,9,10,11,12,13,14,15,16,17-tetradecahydro-1H-cyclopenta[a]phenanthren-17-yl)-1-hydroxypentyl)cyclopropane-1-carbonitrile], under setting [2], the EC50 was 0.001 to 0.1 µM.

On to `C[C@H](CC[C@H](O)C1(C#N)CC1)[C@H]1CC[C@H]2[C@@H]3CC=C4C[C@@](C)(O)CC[C@]4(C)[C@H]3CC[C@]12C` [Compound C-22, 1-((1S,4R)-1-hydroxy-4-((3S,8S,9S,10R,13R,14S,17R)-3-hydroxy-3,10,13-trimethyl-2,3,4,7,8,9,10,11,12,13,14,15,16,17-tetradecahydro-1H-cyclopenta[a]phenanthren-17-yl)pentyl)cyclopropane-1-carbonitrile], for which, under setting [1], the Emax was less than 100%. Further, under setting [2], the concentration giving a half-maximal response (EC50) fell in the range of 0.001 to 0.1 µM.

In the case of `C[C@H](CC[C@@H](O)C1(C#N)CC1)[C@H]1CC[C@H]2[C@@H]3CC=C4C[C@@](C)(O)CC[C@]4(C)[C@H]3CC[C@]12C` [Compound C-23, 1-((1R,4R)-1-hydroxy-4-((3S,8S,9S,10R,13R,14S,17R)-3-hydroxy-3,10,13-trimethyl-2,3,4,7,8,9,10,11,12,13,14,15,16,17-tetradecahydro-1H-cyclopenta[a]phenanthren-17-yl)pentyl)cyclopropane-1-carbonitrile], the EC50 under setting [2] fell in the range of 0.001 to 0.1 µM.

Turning to `C[C@H](CC[C@@H](O)C1(C#N)CCC1)[C@H]1CC[C@H]2[C@@H]3CC=C4C[C@@](C)(O)CC[C@]4(C)[C@H]3CC[C@]12C` [Compound C-24, 1-((1R,4R)-1-hydroxy-4-((3S,8S,9S,10R,13R,14S,17R)-3-hydroxy-3,10,13-trimethyl-2,3,4,7,8,9,10,11,12,13,14,15,16,17-tetradecahydro-1H-cyclopenta[a]phenanthren-17-yl)pentyl)cyclobutane-1-carbonitrile], the EC50 under setting [2] is 0.001 to 0.1 µM.

Turning to `C[C@H](CC[C@H](O)C1(C#N)CCC1)[C@H]1CC[C@H]2[C@@H]3CC=C4C[C@@](C)(O)CC[C@]4(C)[C@H]3CC[C@]12C` [Compound C-25, 1-((1S,4R)-1-hydroxy-4-((3S,8S,9S,10R,13R,14S,17R)-3-hydroxy-3,10,13-trimethyl-2,3,4,7,8,9,10,11,12,13,14,15,16,17-tetradecahydro-1H-cyclopenta[a]phenanthren-17-yl)pentyl)cyclobutane-1-carbonitrile], the Emax under setting [1] was less than 100%. In addition, the EC50 under setting [2] was in the range of 0.001 to 0.1 µM.

`CC[C@]1(O)CC[C@]2(C)C3=CC[C@]4(C)[C@@H]([C@H](C)CC[C@H](O)C5(C#N)CC5)CC[C@H]4[C@@H]3CC[C@H]2C1` [Compound C-26, 1-((1S,4R)-4-((3S,5S,8S,10S,13R,14S,17R)-3-ethyl-3-hydroxy-10,13-dimethyl-2,3,4,5,6,7,8,10,12,13,14,15,16,17-tetradecahydro-1H-cyclopenta[a]phenanthren-17-yl)-1-hydroxypentyl)cyclopropane-1-carbonitrile]: the 50% effective concentration (EC50) under setting [2] lay in the range of 0.001 to 0.1 µM and the EC50 under setting [3] lay within 0.001 to 0.1 µM.

For the compound `CC[C@]1(O)CC[C@]2(C)C3=CC[C@]4(C)[C@@H]([C@H](C)CC[C@@H](O)C5(C#N)CC5)CC[C@H]4[C@@H]3CC[C@H]2C1` [Compound C-27, 1-((1R,4R)-4-((3S,5S,8S,10S,13R,14S,17R)-3-ethyl-3-hydroxy-10,13-dimethyl-2,3,4,5,6,7,8,10,12,13,14,15,16,17-tetradecahydro-1H-cyclopenta[a]phenanthren-17-yl)-1-hydroxypentyl)cyclopropane-1-carbonitrile], the concentration for a half-maximal effect (EC50) under setting [2] was in the range of 0.001 to 0.1 µM and the EC50 under setting [3] was 0.001 to 0.1 µM.
